According to patent US8895004B2 (priority 2007, dated 2014):
“Also recorded” adds a separate entry of the source.

Assays:
[1] = system: cultured hippocampal neurons treated with ω-conotoxin (P/Q-dominated cells); type: cell-based, rat
N-type currents = N-type currents (Rattus norvegicus, UniProt Q02294); type: cell-based

Compound	amplitude of spontaneous synaptic currents [1]	reversal of Aβ globulomer-induced reduction of frequency of spontaneous synaptic events [1]	amplitude of synaptic events (mIPSCs) [1]	effect on amplitude of mIPSCs when P/Q channels are already blocked [1]	effect on synaptic activity / frequency of mIPSCs after blockade of P/Q channels by ω-agatoxin [1]	frequency of spontaneous synaptic events [1]	N-type calcium current amplitude (N-type currents) [pA]
CC[C@H](CO)Nc1nc(NCc2ccccc2)c2ncn(C(C)C)c2n1 [roscovitine]	No effect	reversal	–	–	–	–	–
Aβ(1-42) globulomer: soluble, globular, non-covalent association of Aβ(1-42) peptides, apparent molecular weight 38/48 kDa, obtained as in Example 6b of WO2004/067561	–	–	no or little effect; also recorded: no effect	No effect	No additive effect; also recorded: no further effect	inhibits the frequency of spontaneous synaptic events	1399.8±376.4
